Holding throughout (test): growth of human tumour cells (NCI), 48 h
Test [1] relates to HCT-15 colon.
Test [2] relates to OVCAR-4 ovarian.
Test [3] deals with UACC-257 melanoma.
The subject of test [4] is SF-539 CNS.
The subject of test [5] is K-562 leukemia.
Test [6] deals with DU-145 prostate.
Test [7] deals with PC-3 prostate.
Test [8] has as its system RPMI-8226 leukemia.
The test system of test [9] is SK-MEL-28 melanoma.
Test [10] relates to OVCAR-3 ovarian.
The test system of test [11] is HCT-116 colon.
Test [12] has as its system 786-0 renal.
For test [13], the system named is CCRF-CEM leukemia.
The subject of test [14] is KM12 colon.
Test [15] deals with OVCAR-8 ovarian.
Test [16] has as its system UACC-62 melanoma.
Test [17] has as its system CAKI-1 renal.
Test [18] relates to MALME-3M melanoma.
Test [19] relates to RXF 393 renal.

TGI data for eight compounds are collected here from PubChem BioAssay (NCI).

Each structure is given as a SMILES string.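 Exposure lasted 48 hours, with cells grown in 96-well plates and compounds tested at five concentrations. The concentration for full growth arrest is given as TGI.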 Where only a bound is given, the exact number is not on record here.

`COc1ccc(CNc2nc3cc(C(F)(F)F)ccc3nc2C(=O)O)cc1OC`: the TGI in test [1] is over 100 µM; in test [2], over 100 µM; in test [3] it was over 100 µM; in test [4], over 100 µM; in test [5] it was 74.7 µM; in test [6], over 100 µM. The TGI in [7] was over 100 µM; in test [8], 94.6 µM; in test [9] it was over 100 µM; in test [10], 58.1 µM; in test [11], 75.4 µM; in test [12], over 100 µM. Also, the TGI in test [13] is 92.9 µM; in test [14], over 100 µM; in test [15], over 100 µM; in [16] it was 45.6 µM; in test [17], over 100 µM.
With `O=C(Cn1cc(-c2ccccc2)nn1)NC1CCCC1`, the TGI in test [1], in test [2], in [3], in test [4], in test [5] and in [6] was over 100 µM each time. Also, the TGI in [7], in test [8], in [9], in [18], in test [11] and in test [12] was over 100 µM each time. The TGI in [13], in [14], in [15] and in [17] was over 100 µM in each case.
Regarding `CC(=O)Nc1ccc(C(=O)NN2C(=O)C(Cl)C2c2cc(Br)ccc2O)cc1` (centres undefined), the TGI was over 100 µM in [1]; over 100 µM in [2]; over 100 µM in [3]; over 91.9 µM in test [4]; over 100 µM in test [5]; over 100 µM in [6]. Besides, the TGI in test [7], in test [8], in [9], in test [18], in test [10] and in test [11] was over 100 µM in each case. The TGI in test [12], in test [13], in [14], in test [15] and in test [16] was over 100 µM each time.
For the compound `Cc1cc2c(c(C=Nc3ccc([N+](=O)[O-])cc3)c1)OC1(C=C2)Oc2ccccc2C(=O)N1C` (centres undefined), the TGI in [1] was found to be 39.4 µM; in test [2], 64.2 µM; in test [3] it was 42.4 µM; in test [5], 91.5 µM; in [6], 54.2 µM; in test [7], 44.4 µM. Also, the TGI in test [8] was 93.1 µM; in test [9], 44.8 µM; in test [19] it was 47.5 µM; in [10] it was 60.9 µM; in [11], 30.9 µM; in test [12], 54.3 µM. In addition, the TGI in test [13] was 39.8 µM; in test [14], 46.2 µM; in test [15], 36.9 µM; in test [16] it was 34.9 µM; in [17], 48.4 µM.
For the compound `COc1ccc(-c2c(C#N)c(-c3ccc(C)cc3)n(NS(=O)(=O)c3ccccc3)c(=O)c2C#N)cc1`, the TGI in test [1], in test [2], in test [3], in test [4], in test [5] and in test [7] was over 100 µM in each case. For the same compound, the TGI in [8] is 39.4 µM; in test [9], over 100 µM; in test [18] it was over 100 µM; in test [19] it was over 100 µM; in [10], over 100 µM; in [11], over 100 µM. The TGI in [12], in test [13], in test [14], in test [15], in test [16] and in [17] was over 100 µM throughout.
For `CN(/N=C/c1cccs1)c1ccc(Cl)cc1[N+](=O)[O-]`, the TGI is over 100 µM in test [1]; over 100 µM in test [2]; over 100 µM in test [3]; 75 µM in test [4]; over 100 µM in test [5]; over 100 µM in test [6]. Further, the TGI in [7], in test [8], in [9], in [19], in test [10] and in [11] was over 100 µM each time. Further, the TGI is over 100 µM in [12]; 73.2 µM in [13]; over 100 µM in [14]; over 100 µM in [15]; over 100 µM in test [16]; over 100 µM in [17].
Consider `COc1ccc(C(=O)N2CCc3c([nH]c4ccccc34)C2C(=O)O)o1` (centres undefined), for which the TGI in [1], in test [2], in test [3], in test [4], in test [5] and in test [6] was over 10 µM in each case. Besides, the TGI in [7], in test [8], in test [9], in [18], in test [10] and in test [11] was over 10 µM each time. Besides, the TGI in test [12], in test [13], in test [14], in [15], in test [16] and in test [17] was over 10 µM in each case.
Take `O=C(c1cccc(OCc2ccccc2)c1OCc1ccccc1)N1CCSC1=S`: the TGI in [1] was over 100 µM; in test [2] it was over 100 µM; in [3], over 87.7 µM; in test [4], over 100 µM; in test [5] it was over 100 µM; in [6], over 100 µM. The TGI is over 100 µM in [7]; 43 µM in test [8]; over 100 µM in test [9]; over 72.9 µM in [18]; 62.9 µM in test [10]; over 100 µM in test [11]. For the same compound, the TGI in test [12] is over 100 µM; in test [13] it was 24.4 µM; in test [14], 36.9 µM; in test [15] it was over 100 µM; in test [16], 42.6 µM; in [17], over 92.9 µM.
